Source: ChEMBL document CHEMBL4513161, “CO-ADD screening of MMV (CH) - Pandemic Response Box” (2021)
≈ marks a conversion by molar mass, not a printed value. Structures can show the parent of a compound that is named as a salt.

Legend:
Klebsiella pneumoniae = assay: microbe, parasite or virus in culture; details: ATCC 700603, 18 h, ASSAY_TEST Inhibition of Bacterial Growth, detection method Absorption (OD600), MEDIA CAMHB, plate type 384well, NBS, CORNING #3640
Escherichia coli = assay: microbe, parasite or virus in culture; details: ATCC 25922, 18 h, ASSAY_TEST Inhibition of Bacterial Growth, detection method Absorption (OD600), MEDIA CAMHB, plate type 384well, NBS, CORNING #3640
Staphylococcus aureus = assay: microbe, parasite or virus in culture; details: ATCC 43300, 18 h, ASSAY_TEST Inhibition of Bacterial Growth, detection method Absorption (OD600), MEDIA CAMHB, plate type 384well, NBS, CORNING #3640
Candida albicans = assay: microbe, parasite or virus in culture; details: ATCC 90028, ASSAY_TEST Inhibition of Fungal Growth, detection method Absorption (OD530), plate type 384well, NBS, CORNING #3640
Acinetobacter baumannii = assay: microbe, parasite or virus in culture; details: ATCC 19606, 18 h, ASSAY_TEST Inhibition of Bacterial Growth, detection method Absorption (OD600), MEDIA CAMHB, plate type 384well, NBS, CORNING #3640
Pseudomonas aeruginosa [1] = assay: Antibacterial activity against Pseudomonas aeruginosa PAO397 [PAO1 d(mexAB-oprM) d(mexCD-oprJ) d(mexEF-oprN) d(mexJKL) d(mexXY) d(opmH)] (CO-ADD:GN_211); MIC in CAMBH media using NBS plates, by OD(600); type: functional; details: ASSAY_TEST Inhibition of Bacterial Growth, detection method Absorption (OD600), MEDIA CAMHB, plate type 384well, CORNING #3640, time 18 hr
HEK293 = assay: cells; type: functional, Homo sapiens, ATCC CRL1573; details: ASSAY_TEST Inhibition of Cell Viability, detection method Resazurin, Fluorescence (ex560/em590), MEDIA DMEM with 10% FBS, plate type 384well, TC, CORNING #3712, time 18 hr, read-out: CC50
Pseudomonas aeruginosa [2] = assay: microbe, parasite or virus in culture; details: ATCC 27853, 18 h, ASSAY_TEST Inhibition of Bacterial Growth, detection method Absorption (OD600), MEDIA CAMHB, plate type 384well, NBS, CORNING #3640
[3] = Homo sapiens, ATCC CRL1573, HEK293

MIC (Klebsiella pneumoniae) [µM]	MIC (Escherichia coli) [µM]	MIC (Staphylococcus aureus) [µM]	MIC (Candida albicans) [µM]	MIC (Acinetobacter baumannii) [µM]	MIC (Pseudomonas aeruginosa [1]) [µM]	MIC (Pseudomonas aeruginosa [2]) [µM]	MIC (Cryptococcus neoformans) [µM]	Structure (SMILES)	CC50 (HEK293; [3]) [µM]	CC50 (HEK293) [µM]
> 20	> 20	> 20	> 20	> 20	> 20	> 20	> 20	Cc1ncc([N+](=O)[O-])n1CC(O)CN1CCOCC1 (configuration not stated) [MORINIDAZOLE]	> 20	–
> 20	> 20	20 (≈ 10.4 µg/mL)	> 20	> 20	> 20	> 20	> 20	Cc1cc(O)c2c(c1)C(=O)c1c(I)c(O)c(I)c(O)c1C2=O	> 20	–
> 20	> 20	> 20	> 20	> 20	> 20	> 20	> 20	Cc1cc(CCCOc2c(C)cc(-c3noc(C(F)(F)F)n3)cc2C)on1 [PLECONARIL]	> 20	–
> 20	> 20	> 20	> 20	> 20	> 20	> 20	> 20	Cc1c[nH]c(=O)nc1NCc1ccccc1	> 20	–
> 20	> 20	> 20	> 20	> 20	> 20	> 20	> 20	NC(=O)c1ccccc1NC(=O)c1ccc(C(=O)Nc2ccccc2C(N)=O)cc1	> 20	–
> 20	> 20	> 20	> 20	> 20	> 20	> 20	> 20	CC(N)C12CC3CC(CC(C3)C1)C2 (configuration not stated) [RIMANTADINE HYDROCHLORIDE]	> 20	–
> 20	> 20	> 20	> 20	> 20	> 20	> 20	> 20	COc1ccc(COc2cc3oc(=O)c4cc(C(C)O)ccc4c3cc2OC)cc1 (configuration not stated) [PALOMID-529]	> 20	–
> 20	> 20	> 20	> 20	> 20	> 20	> 20	> 20	COc1ccc2nc(-c3ccccc3)cc(O)c2c1	2.85	–
> 20	> 20	> 20	> 20	> 20	20 (≈ 7.56 µg/mL)	> 20	> 20	O=C1NC(=S)N/C1=C\c1cc(Br)cc(Br)c1O	> 20	–
> 20	> 20	> 20	> 20	> 20	> 20	> 20	> 20	CN1c2ccc(Cl)cc2N(c2ccccc2)C(=O)c2cn(Cc3ccc(CN4CCOCC4)cc3)nc21	> 20	–
> 20	> 20	> 20	> 20	> 20	> 20	> 20	0.312 (≈ 0.0935 µg/mL)	COC(=O)Nc1nc2cc(Sc3ccccc3)ccc2[nH]1 [FENBENDAZOLE]	8.24	–
> 20	> 20	2.5 (≈ 0.886 µg/mL)	> 20	> 20	5 (≈ 1.77 µg/mL)	> 20	> 20	COc1cc(Cc2cnc(N)nc2N)c2c(c1OC)OC(C1CC1)C=C2 (configuration not stated)	> 20	–
> 20	> 20	> 20	> 20	> 20	> 20	> 20	> 20	CC[C@@]1(O)C(=O)OCc2c1cc1n(c2=O)Cc2cc3c([N+](=O)[O-])cccc3nc2-1 [RUBITECAN]	0.695	–
> 20	> 20	> 20	> 20	> 20	> 20	> 20	> 20	CC(C)(C)c1ccc(OCCn2nc(C(=O)O)c3ccccc3c2=O)cc1	> 20	–
> 20	> 20	> 20	> 20	> 20	> 20	> 20	> 20	O=C(/C=C\n1cnc(-c2cc(C(F)(F)F)cc(C(F)(F)F)c2)n1)NNc1ccccn1 [VERDINEXOR]	> 20	–
> 20	> 20	> 20	> 20	> 20	> 20	> 20	> 20	Cc1cc(Nc2ccc(F)cc2)nc(SCc2nc3ccccc3[nH]2)n1	> 20	–
> 20	> 20	> 20	> 20	> 20	> 20	> 20	> 20	CC(=O)N[C@H](C)C(=O)N[C@H](Cc1ccccc1)C(=O)O	> 20	–
10 (≈ 2.86 µg/mL)	2.5 (≈ 0.716 µg/mL)	2.5 (≈ 0.716 µg/mL)	> 20	> 20	10 (≈ 2.86 µg/mL)	> 20	> 20	C=CCc1cc(Cc2cnc(N)nc2N)cc(OC)c1O	> 20	–
> 20	> 20	> 20	> 20	> 20	> 20	> 20	> 20	CC(C)c1ccc(COc2cccc(-c3cc([S+](C)[O-])c(C#N)c(=O)[nH]3)c2)cc1 (configuration not stated)	> 20	–
> 20	> 20	> 20	> 20	> 20	> 20	> 20	> 20	CCCCSc1nc(N)c2[nH]c(=O)c(=O)n(Cc3ccccc3)c2n1	> 20	–
–	–	–	–	–	–	–	> 20	CC(Oc1ccc(Cl)cc1Cl)C(=O)NCc1ccc2c(c1)OCO2 (configuration not stated)	> 20	–
> 20	> 20	> 20	> 20	> 20	–	20 (≈ 9.03 µg/mL)	> 20	CCN(CC)CCn1c(=N)n(CC(O)COc2ccc(Cl)cc2Cl)c2ccccc21 (configuration not stated)	4.49	–
> 20	> 20	> 20	> 20	> 20	–	–	> 20	N=c1n(CCN2CCCCC2)c2ccccc2n1CC(O)COc1ccc(Cl)cc1Cl (configuration not stated)	6.89	–

Structure (SMILES)	MIC (Klebsiella pneumoniae) [µM]	MIC (Escherichia coli) [µM]	MIC (Staphylococcus aureus) [µM]	MIC (Candida albicans) [µM]	MIC (Acinetobacter baumannii) [µM]	MIC (Pseudomonas aeruginosa [1]) [µM]	MIC (Pseudomonas aeruginosa [2]) [µM]	MIC (Cryptococcus neoformans) [µM]	CC50 (HEK293; [3]) [µM]	CC50 (HEK293) [µM]
COc1cc(C(C)(C)CCCC(C)C)cc(OC)c1OC	> 20	> 20	> 20	> 20	> 20	> 20	> 20	> 20	> 20	–
Clc1ccc(COC(Cn2ccnc2)c2ccc(Cl)cc2Cl)c(Cl)c1 (configuration not stated)	–	–	–	–	–	> 20	–	0.625 (≈ 0.26 µg/mL)	–	> 20
CC1(C)[C@H](C(=O)O)N2C(=O)C[C@H]2S1(=O)=O [SULBACTAM]	–	> 20	> 20	> 20	> 20	> 20	2.5 (≈ 0.583 µg/mL)	> 20	> 20	–
